{
  "source": "paper PMC6934184",
  "about": "“Selective DNA-PKcs inhibition extends the therapeutic index of localized radiotherapy and chemotherapy” (The Journal of Clinical Investigation, 2019)",
  "target": "T1, ABL1 (Homo sapiens, UniProt P00519)",
  "T1 construct": "purchased Thermo Fisher Scientific (Life Technologies) SelectScreen",
  "T1 sequence (P00519 whole entry)": "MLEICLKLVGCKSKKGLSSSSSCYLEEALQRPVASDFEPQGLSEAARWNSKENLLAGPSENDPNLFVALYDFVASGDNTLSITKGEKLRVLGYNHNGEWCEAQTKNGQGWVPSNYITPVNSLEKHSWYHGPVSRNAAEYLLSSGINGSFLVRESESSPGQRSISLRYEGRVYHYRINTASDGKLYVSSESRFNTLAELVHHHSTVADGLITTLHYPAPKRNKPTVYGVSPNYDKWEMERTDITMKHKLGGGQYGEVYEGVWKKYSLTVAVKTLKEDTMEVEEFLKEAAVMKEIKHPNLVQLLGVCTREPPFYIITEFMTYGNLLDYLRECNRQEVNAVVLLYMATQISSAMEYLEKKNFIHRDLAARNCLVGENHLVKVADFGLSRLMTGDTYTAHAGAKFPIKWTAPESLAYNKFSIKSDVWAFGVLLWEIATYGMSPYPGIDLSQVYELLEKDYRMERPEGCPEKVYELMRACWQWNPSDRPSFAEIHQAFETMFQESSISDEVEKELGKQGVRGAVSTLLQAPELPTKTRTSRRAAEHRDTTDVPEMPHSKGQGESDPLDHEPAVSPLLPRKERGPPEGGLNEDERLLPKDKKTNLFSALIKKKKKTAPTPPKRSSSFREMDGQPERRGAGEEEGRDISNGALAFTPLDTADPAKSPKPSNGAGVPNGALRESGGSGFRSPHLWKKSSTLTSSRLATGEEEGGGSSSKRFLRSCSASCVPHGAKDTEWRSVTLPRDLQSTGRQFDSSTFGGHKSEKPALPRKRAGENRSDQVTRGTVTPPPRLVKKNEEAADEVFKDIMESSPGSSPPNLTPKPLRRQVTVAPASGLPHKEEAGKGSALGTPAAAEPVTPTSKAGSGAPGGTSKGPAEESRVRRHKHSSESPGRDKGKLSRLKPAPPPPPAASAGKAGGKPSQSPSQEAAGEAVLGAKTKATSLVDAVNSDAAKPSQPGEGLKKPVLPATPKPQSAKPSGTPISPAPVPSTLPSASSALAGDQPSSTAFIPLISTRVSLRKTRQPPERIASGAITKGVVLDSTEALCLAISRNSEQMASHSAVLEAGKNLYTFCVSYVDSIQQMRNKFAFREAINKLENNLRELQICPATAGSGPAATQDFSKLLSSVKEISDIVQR",
  "test": "SelectScreen Z'LYTE",
  "format": "biochemical",
  "outline": "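Percent values come from Thermo SelectScreen profiling of NU5455, combining activity and binding assays. CSF1R was run in Z'LYTE format at Km app ATP, and CAMK1 in Adapta format with ATP listed at 10.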",
  "data": [
    {"smiles": "CN(C(=O)CN1CCOCC1)c1ccc2sc3c(-c4cccc5c(=O)cc(N6CC7CCC(C6)O7)oc45)cccc3c2c1", "note": "[NU5455]", "values": [
      {"measurement": "inhibition at 1 µM", "value": 10.4, "unit": "%"}
    ]}
  ]
}
